Results from ChEMBL document CHEMBL4651402, “Screening of ~5500 FDA-approved drugs and clinical candidates for anti-SARS-CoV-2 activity” (2021).

System: SARS-CoV-2
Experiment: microbe, parasite or virus in culture
Settings: Severe acute respiratory syndrome coronavirus 2, Vero C1008, 48 h

| SMILES | IC50 [µM] | IC50 (read-out: pIC50 (converted)) [µM] |
| --- | --- | --- |
| Nc1ncc(-c2ccncc2)nc1Nc1ccc2[nH]ccc2c1 [AKN-028] | > 20 | > 20 |
| CCO[C@H](COc1ccc(C(F)(F)F)cc1)CSc1ccc(OCC(=O)O)c(C)c1 | > 20 | > 20 |
| O=C(O)[C@H](O)[C@@H](O)[C@H](O[C@@H]1O[C@H](CO)[C@H](O)[C@H](O)[C@H]1O)[C@H](O)CO | > 20 | > 20 |
| CC(CC(c1ccccc1)c1ccccc1)N(C)C (stereo unspecified) [TRIMETHYLDIPHENYLPROPYLAMINE] | > 20 | > 20 |
| Cc1cc(C)c2c3ccccc3n(Cc3ccc([C@@H](C(=O)N[C@@H](CO)c4ccccc4)C4CCCC4)cc3)c2n1 | > 20 | > 20 |
| CCOC(=O)COc1ccc2c(C)c(CCN(CC)CC)c(=O)oc2c1 [CHROMONAR] | > 20 | > 20 |
| O=NN(CCCl)C(=O)NC1CCCCC1 [LOMUSTINE] | > 20 | > 20 |
| CC(C)=CCOc1cc(NC(=S)c2ccoc2C)ccc1Cl [UC 781] | > 20 | > 20 |
| O=c1sn(-c2cccc3ccccc23)c(=O)n1Cc1ccccc1 [TIDEGLUSIB] | > 20 | > 20 |
| O=C1Cc2cc(CCN3CCN(c4nsc5ccccc45)CC3)c(Cl)cc2N1 [ZIPRASIDONE] | > 20 | > 20 |
| S=C(NC1CCCCC1)N1CCC(c2cnc[nH]2)CC1 [THIOPERAMIDE] | > 20 | > 20 |
| COc1cc(C(=O)NCCCCCC(=O)O)cc(OC)c1OC [CAPOBENIC ACID] | > 20 | > 20 |
| C1=CN2CC(c3cccs3)N=C2S1 (stereo unspecified) | > 20 | > 20 |
| O=C(Nc1ccc(Oc2ccc(Cl)cc2)c(Cl)c1)c1cc(I)cc(I)c1O [RAFOXANIDE] | > 20 | > 20 |
| C1N2CN3CN1CN(C2)C3 [METHENAMINE] | > 20 | > 20 |
| COC1=C[C@@H]2C3=C([C@@H]2C1=O)[C@@H](NC(C)=O)CCc1cc(OC)c(OC)c(OC)c13 | > 20 | > 20 |
| CC1(C)O[C@@H]2C[C@H]3[C@@H]4C[C@H](F)C5=CC(=O)C=C[C@]5(C)[C@@]4(F)[C@@H](O)C[C@]3(C)[C@]2(C(=O)CO)O1 [FLUOCINOLONE ACETONIDE] | > 20 | > 20 |
| CNC(=O)c1cc(Oc2ccc(NC(=O)Nc3ccc(Cl)c(C(F)(F)F)c3)c(F)c2)ccn1 [REGORAFENIB] | > 20 | > 20 |
| Cc1cc(=O)oc2c(O)c(O)ccc12 [4-METHYLDAPHNETIN] | > 20 | > 20 |
| CC(C)(CO)C(=O)SCCOP(=O)(NCc1ccccc1)OC[C@H]1O[C@@H](n2cnc3c(=O)[nH]c(N)nc32)[C@](C)(O)[C@@H]1O (stereo partly specified) | > 20 | > 20 |
| OC[C@H]1O[C@H](O)C[C@@H](O)[C@@H]1O | > 20 | > 20 |
| C=CC(=O)N1CCC([C@@H]2CCNc3c(C(N)=O)c(-c4ccc(Oc5ccccc5)cc4)nn32)CC1 [ZANUBRUTINIB] | > 20 | > 20 |
| COc1cc2nc(N(C)CCCNC(=O)C3CCCO3)nc(N)c2cc1OC (stereo unspecified) [ALFUZOSIN] | > 20 | > 20 |
| CC(=O)Nc1ccc(OC(C)(C)C)cc1 [BUTACETIN] | > 20 | > 20 |
| CC(C)(CO)CCCCCCC(C)(C)CO [GEMCADIOL] | > 20 | > 20 |

| SMILES | IC50 [µM] | IC50 (read-out: pIC50 (converted)) [µM] |
| --- | --- | --- |
| N=C(N)NN [PIMAGEDINE] | > 20 | > 20 |
| COc1cc(C)c2c(Oc3cccc(C(F)(F)F)c3)c(OC)cc(NC(C)CCCN)c2n1 (stereo unspecified) [TAFENOQUINE] | > 20 | > 20 |
| COc1ccccc1CNCCCCCCNCCCCCCCCNCCCCCCNCc1ccccc1OC [METHOCTRAMINE] | > 20 | > 20 |
| CO[C@H]1C=C2CCN(C)[C@H]2[C@@H]2c3cc4c(cc3C(=O)O[C@H]21)OCO4 (single isomer, unassigned) | > 20 | > 20 |
| Cc1c(Cc2ccc3ccccc3n2)c2cc(F)ccc2n1CC(=O)O [TIMAPIPRANT] | > 20 | > 20 |
| O=S(=O)(c1cccc2cnccc12)N1CCCNCC1 [FASUDIL] | > 20 | > 20 |
| NC(=O)O[C@@H](Cn1ncnn1)c1ccccc1Cl [CENOBAMATE] | > 20 | > 20 |
| CCc1c(O)cc(O)c(C(=O)c2ccc(OCCN3CCOCC3)c(OC)c2)c1CC(=O)N(CCOC)CCOC [KW-2478 FREE BASE] | > 20 | > 20 |
| C[C@]12CCC(=O)C=C1CC[C@@H]1[C@@H]2CC[C@@]2(C)[C@H]1CC[C@]2(O)C(=O)CO [CORTODOXONE] | > 20 | > 20 |
| CCOC(=O)[C@@H](N)Cc1ccc(-c2cc(O[C@H](c3ccc(Cl)cc3-n3ccc(C)n3)C(F)(F)F)nc(N)n2)cc1 [TELOTRISTAT ETHYL] | > 20 | > 20 |
| CCCC(C)C1(CC)C(=O)NC(=S)NC1=O (stereo unspecified) [THIOPENTAL] | > 20 | > 20 |
| O=c1c2ccccc2nc2n1CCCC2 | > 20 | > 20 |
| NC(=O)NC(=O)Cc1ccccc1 [PHENACEMIDE] | > 20 | > 20 |
| CN(CC(=O)N1CCOCC1)Cc1c(Cl)cccc1NC(=O)c1ccccc1 [FOMINOBEN] | > 20 | > 20 |
| C[N+](C)(C)CC(=O)O [BETAINE] | > 20 | > 20 |
| CC(=O)O[C@H]1C[C@@]2(C)[C@@H](C[C@@H](O)[C@H]3[C@@]4(C)CC[C@@H](O)[C@@H](C)[C@@H]4CC[C@@]32C)/C1=C(\CCC=C(C)C)C(=O)O [FUSIDIC ACID] | > 20 | > 20 |
| CC(C)c1cc(-c2n[nH]c(=O)n2-c2ccc3c(ccn3C)c2)c(O)cc1O [GANETESPIB] | > 20 | > 20 |
| Cc1c(CN(C)C(=O)/C=C/c2cnc3c(c2)CCC(=O)N3)oc2ccccc12 [AFN-1252] | > 20 | > 20 |
| COc1ccc(-c2cc(=O)c3c(OC)cc(OCC(=O)O)cc3o2)cc1OC [RECOFLAVONE] | > 20 | > 20 |
| CC(=O)[C@H]1CC[C@H]2[C@@H]3C=CC4=CC(=O)CC[C@@]4(C)[C@@H]3CC[C@]12C [DYDROGESTERONE] | > 20 | > 20 |
| CN1CCC2=C(C1)C(c1ccccc1)c1ccccc12 (stereo unspecified) [PHENINDAMINE] | > 20 | > 20 |
| CCCCCCCC(=O)N[C@H](CN1CCCC1)[C@H](O)c1ccc2c(c1)OCCO2 | > 20 | > 20 |
| COCCNc1cc(NC(=O)N2CCCc3cc(CN4CCN(C)CC4=O)c(C=O)nc32)ncc1C#N [FGF401] | > 20 | > 20 |
| CC(=O)O[C@]1(C(C)=O)CC[C@H]2[C@@H]3C=C(Cl)C4=CC(=O)[C@@H]5C[C@@H]5[C@]4(C)[C@H]3CC[C@@]21C [CYPROTERONE ACETATE] | > 20 | > 20 |
| O=c1[nH]c(=O)n(C2CCCO2)cc1F (stereo unspecified) [TEGAFUR] | > 20 | > 20 |

| SMILES | IC50 [µM] | IC50 (read-out: pIC50 (converted)) [µM] |
| --- | --- | --- |
| Cc1ccc(NC2=NCCN2)c(Cl)c1 [TOLONIDINE] | > 20 | > 20 |
| Cc1cccc(/C=N/Nc2cc(N3CCOCC3)nc(OCCc3ccccn3)n2)c1 [APILIMOD] | > 20 | > 20 |
| C[C@H](CS)C(=O)N1CCC[C@H]1C(=O)O [CAPTOPRIL] | > 20 | > 20 |
| Oc1ccc(O)cc1 [HYDROQUINONE] | > 20 | > 20 |
| CNc1ccccc1C(=O)O | > 20 | > 20 |
| CC(=O)NC(Cc1ccccc1)C(=O)O (stereo unspecified) [AFALANINE] | > 20 | > 20 |
| O=C1Nc2ccccc2C1(c1ccc(O)cc1)c1ccc(O)cc1 [OXYPHENISATINE] | > 20 | > 20 |
| Oc1ccc(Cl)cc1 [PARACHLOROPHENOL] | > 20 | > 20 |
| COc1ccc(Cc2cnc(N)nc2N)cc1OC [DIAVERIDINE] | > 20 | > 20 |
| Nc1nc(OC(c2ccc(-c3cccc(F)c3)cc2)C(F)(F)F)cc(-c2ccc(C[C@H](N)C(=O)O)cc2)n1 (stereo partly specified) | > 20 | > 20 |
| O=C(O)c1ccccc1OP(=O)(O)O [FOSFOSAL] | > 20 | > 20 |
| CC12CC3CC(C)(C1)CC(N)(C3)C2 [MEMANTINE] | > 20 | > 20 |
| C=C(C)[C@@H]1CC[C@]2(CO)CC[C@]3(C)[C@H](CC[C@@H]4[C@@]5(C)CC[C@H](O)C(C)(C)[C@@H]5CC[C@]43C)[C@@H]12 [BETULIN] | > 20 | > 20 |
| CCCc1c(OCCCOc2ccc(C(C)=O)c(OC)c2CCC)ccc2c1OC(C(=O)O)CC2 (stereo unspecified) [SC-41390] | > 20 | > 20 |
| Cc1cc(C(=O)Nc2nc3cccc(Cl)c3n2[C@@H]2CCCCN(C(=O)/C=C/CN(C)C)C2)ccn1 [NAZARTINIB] | > 20 | > 20 |
| Nc1ccc(C(=O)N2CC3CC(CN(Cc4ccccc4)C3)C2)cc1 [AMBASILIDE] | > 20 | > 20 |
| NC(=O)N1c2ccccc2CC(=O)c2ccccc21 [OXCARBAZEPINE] | > 20 | > 20 |
| CC(=O)OCC(=O)[C@@]1(O)CC[C@H]2[C@@H]3CCC4=CC(=O)C=C[C@]4(C)[C@@]3(Cl)[C@@H](Cl)C[C@@]21C [DICHLORISONE ACETATE] | > 20 | > 20 |
| C/C=C1/C[C@@H](C)[C@](O)(CO)C(=O)OCC2=CCN3CC[C@@H](OC1=O)[C@@H]23 | > 20 | > 20 |
| Cc1ccc(COC(=O)N2CC[C@H](CNc3ncccn3)[C@H](F)C2)cc1 [RISLENEMDAZ] | > 20 | > 20 |
| Cc1nc2sccn2c(=O)c1CCN1CCC(=C(c2ccc(F)cc2)c2ccc(F)cc2)CC1 [RITANSERIN] | > 20 | > 20 |
| CC1CN(C)CC2Cc3c(ccc4ccccc34)OC12O (stereo unspecified) [NARANOL] | > 20 | > 20 |
| C=C(c1ccc(C(=O)O)cc1)c1cc2c(cc1C)C(C)(C)CCC2(C)C [BEXAROTENE] | > 20 | > 20 |
